One molecule from patent US20200385396A1, “Compond for treatment or prevention of obesity or diseases related to obesity, and application thereof” (SHANGHAI INSTITUTES FOR BIOLOGICAL SCIENCES, CHINESE …, priority 2017, published 2020) can be followed below.

Common to all, as to type: in vivo, mouse
Assay [1] concerns mice fed with high-fat diet. The experiment in a line: Paired feeding experiment in metabolic cage. The conditions noted are these: 20 mg/kg. As for the experimental part: Mice fed with high-fat diet (8 mice per group) are placed in a metabolic cage for 3 days and injected with 20 mg/kg of HLY72 or DMSO once a day. Half of the mice in the DMSO group are paired with the HLY72 group. The average daily food intake (A), energy dissipation (B), respiratory exchange rate (C), physical activity (D) (E) of the three groups of mice after the three-day metabolic cage experiment is completed, the weight of the three groups of mice.
Before starting the metabolic cage experiment, the mice were fed in a single cage for 1 week. After a one-week single cage adaptation period, three days before the start of the small molecule compound injection, the mice were injected with 25 μL of DMSO within 2 hours before turning off the lights every afternoon, allowing them to adapt to the injection for 3 days. After 3 days of injection, the acclimated mice were put into the metabolic cage. Starting from the same day, 25 μL of DMSO and HLY72 (20 mg/kg) were injected within 2 hours before turning off the lights for 3 consecutive days.
Next, the HLY72 injection group and their paired feeding group are compared. The DMSO-injected mice were divided into two groups. The first group was free to get enough food, while the other group was provided the same amount of food as the HLY72 group daily. […] Compared with the DMSO group, the energy expenditure of the HLY72 group and its paired feeding group are decreased day and night. There is no difference in energy expenditure between the HLY72 group and its paired feeding group during the day and night (FIG. 14b).

The next assay deals with normal mice. The experiment in a line: Body weight and daily food intake of normal mice under repeated dosing. The conditions noted are these: for body weight after treatment / daily food intake compared with the control group / reduction in total body weight / body weight before treatment: normal mice; for body weight before treatment: start. As for the experimental part: (§1) Mice were intraperitoneally injected with DMSO or HLY72 (dissolved in DMSO) 25 μL within 2 hours before turning off the lamp. During the intragastric experiment, the high concentration of HLY72 dissolved in DMSO was dissolved in 10% cyclodextrin, and the total volume was 100 μL Volume by gavage, so that the final concentration of DMSO was less than 10%. The diet was weighed at the 3rd hour, the 6th hour, the 12th hour, and the 24th hour respectively after the lights out. The corresponding mouse body weight was also weighed at the same time before the daily administration. The fat content of mice was measured with the magnetic resonance fat content measuring instrument of the animal platform in SIBCB.
After screening better small-molecule compound and probably determining its key groups, whether HLY72 has a weight-loss effect has become the most wanted result immediately. For this problem, we directly used normal mice intraperitoneally injected with HLY72 for 5 consecutive days.
In order to further investigate whether the administration of HLY72 by oral gavage also has a weight-loss effect, and because of the convenience of oral administration, many drugs are taken orally. We have also considered one step more for future applications, so that the administration of oral gavage was used to see the effect of HLY72 on the body weight of normal mice. The same was 20 mg/kg HLY72 intragastric treatment for 5 days.
After confirming that HLY72 can indeed reduce the weight of mice, we examine two more questions: (1) Whether HLY72's weight-reducing effect is dose-dependent; (2) Whether HLY72-like molecule HLY103 not binding to NUCB2 has a weight-reducing effect. […] We also do the statistics on the daily food intake of the mice in these three days, which is consistent with the conclusion of the short-term statistics in the previous day.

A further assay deals with high-fat diet obese mice. The experiment in a line: Fat and muscle content (magnetic resonance) of high-fat diet obese mice. The protocol: as §1
In the experiment, high-fat diets were used to feed obese mice weighing about 40 grams for 22 weeks, according to the way used in the previous 3 courses.

For assay [2], the system named is NUCB2 gene knockout heterozygous mice. The experiment in a line: Effect on NUCB2 gene knockout heterozygous mice. The text has this: Heterozygous mice prepared by the CRISPR-Cas9 system were purchased from Xiamen University. […] Heterozygous mice deleted 83 bases in E3 and confirmed by sequencing (FIG. 17c). In order to facilitate the experiment, for mice with 83 bases deleted, we designed primers to detect by PCR (FIG. 17b). Because of the failure to obtain NUCB2 knockout homozygous mice for multiple matches, only heterozygous mice can be used for research.

The mark [3] stands for this setting: intraperitoneal 20 mg/kg, 5 consecutive days.

The structures appear in SMILES notation.

With `C=Cc1cccc2c1N(C)Cc1cc3c(cc1-2)OCO3` [HLY72], in assay [1], the “body weight, difference to paired feeding group” value was “no significant difference”; the “physical activity compared with the DMSO group and the paired feeding group” value was “significantly reduced”. In addition, in assay [1] (after three-day metabolic cage), the body weight entry is on record as “decreased significantly”. Further, in assay [1] (day and night), the “energy expenditure compared with the DMSO group” value was “decreased” and the “energy expenditure, difference to paired feeding group” value is “no difference”. Besides, in assay [1] (night and day), the “respiratory exchange rates compared with the paired feeding group and the DMSO group” value is listed as “significantly reduced”. Moreover, the “effect on body weight / weight loss” value in the assay on normal mice (intraperitoneal, 3 consecutive days, HLY72 10 and 20 mg/kg, HLY103 20 mg/kg) is on record as “concentration gradient”. In the assay with normal mice (setting [3]), the “body weight after treatment” value worked out at 23.37 ± 0.36 g, the “daily food intake compared with the control group” value is reported as “significantly reduced” and the “reduction in total body weight” value is given as 9.21%±0.74%. For the same molecule, the “body weight before treatment” value in the assay with normal mice (intraperitoneal 20 mg/kg) turned out to be 25.73 ± 0.29 g. Further, in the assay with normal mice (oral gavage 20 mg/kg, 5 days), the “body weight after treatment” value was 23.14 ± 0.45 g, the “daily food intake compared with the control group” value is “decreased significantly” and the “reduction in total body weight” value was 8.43%±0.81%. The “body weight before treatment” value in the assay on normal mice (oral gavage 20 mg/kg) was 25.26 ± 0.37 g. In the assay with high-fat diet obese mice (obese mice about 40 g, high-fat diet 22 weeks, 20 mg/kg courses of injection), the weight of mice entry is reported as “significantly reduce”. In the assay with high-fat diet obese mice (obese mice, 20 mg/kg courses), the “increase of the proportion of muscle” value is “about 9 percentage points”. Besides, the fat content entry in the assay with high-fat diet obese mice (obese mice, MRI fat content measuring instrument, 20 mg/kg courses) was “significantly reduced”. For the same molecule, in assay [2], the “effect on daily food intake in heterozygous mice” value is reported as “reduced” and the “effect on mouse weight in heterozygous mice” value was “reduced”.
